Test results as given in the supplement of paper PMC10307832.

Assays:
Assay in all cases: relative viability (nuclei count vs DMSO), 5 days (fraction); higher = more cells survive
[1] = compound: Cc1ccc(C(=O)Nc2cccc(C(F)(F)F)c2)cc1Nc1cncc(C(N)=O)c1 [ALW-II-49-7] + O=C(CCCCCCC(=O)Nc1ccccc1)NO [Vorinostat] (partner 1 µM)
Procedure, shortened: (§1)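 A single step with final 0.05% Triton X-100, 1% formaldehyde and 1 ug/ml Hoechst fixed the cells and stained nuclei 5 days after treatment. Lung cancer cell lines in 1536-well plates had been treated by pin tool the day after seeding with one drug alone or a fixed anchor-drug dose plus five library-drug doses (not always all listed) in √10 steps, and nuclei were counted on 4× images. Relative viability is the ratio of nuclei in treated wells to nuclei in vehicle wells, taken as the median of duplicate plates.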

[2] = compound: C1CC1C(=O)NC2=NNC3=C2C=CC(=C3)C4=CC(=CC=C4)C(=O)NC5CC5 [XMD13-2] + O=C(CCCCCCC(=O)Nc1ccccc1)NO [Vorinostat] (partner 1 µM)
Procedure, shortened: as §1

[3] = compound: Cc1nc(Nc2ncc(C(=O)Nc3c(C)cccc3Cl)s2)cc(N2CCN(CCO)CC2)n1 [Dasatinib] + C[C@]1(O)C[C@@H](c2nc(-c3ccc4ccc(-c5ccccc5)nc4c3)c3c(N)nccn32)C1 [Linsitinib] (partner 1 µM)
Procedure, shortened: as §1

[4] = compound: C1CC1C(=O)NC2=NNC3=C2C=CC(=C3)C4=CC(=CC=C4)C(=O)NC5CC5 [XMD13-2] + CS(=O)(=O)CCNCc1ccc(-c2ccc3ncnc(Nc4ccc(OCc5cccc(F)c5)c(Cl)c4)c3c2)o1 [Lapatinib] (partner 2 µM)
Procedure, shortened: as §1

Row | Cell Line | relative viability ([1]; first compound 0.08 µM) | relative viability ([1]; first compound 0.253 µM) | relative viability ([1]; first compound 0.8 µM) | relative viability ([1]; first compound 2.53 µM) | relative viability ([1]; first compound 8 µM) | relative viability ([2]; first compound 0.05 µM) | relative viability ([2]; first compound 0.1581 µM) | relative viability ([2]; first compound 0.5 µM) | relative viability ([2]; first compound 1.581 µM) | relative viability ([2]; first compound 5 µM) | relative viability ([3]; first compound 0.005 µM) | relative viability ([3]; first compound 0.01581 µM) | relative viability ([3]; first compound 0.05 µM) | relative viability ([3]; first compound 0.1581 µM) | relative viability ([3]; first compound 0.5 µM) | relative viability ([4]; first compound 0.05 µM) | relative viability ([4]; first compound 0.1581 µM) | relative viability ([4]; first compound 0.5 µM) | relative viability ([4]; first compound 1.581 µM) | relative viability ([4]; first compound 5 µM)
1 | NCI-H2126 | 0.8 | 0.877 | 0.778 | 0.71 | 0.707 | 0.849 | 0.731 | 0.745 | 0.749 | 0.735 | 0.636 | 0.582 | 0.589 | 0.422 | 0.264 | 0.728 | 0.767 | 0.792 | 0.706 | 0.765
2 | HCC-827 | 0.9 | 0.803 | 0.787 | 0.813 | 0.883 | 0.838 | 0.937 | 0.956 | 0.765 | 1.06 | 1.03 | 1.05 | 0.971 | 0.581 | 0.102 | 0.19 | 0.2 | 0.172 | 0.243 | 0.2
3 | ABC-1 | 1.05 | 1.2 | 1.13 | 0.78 | 1.27 | 1.3 | 0.979 | 1.03 | – | 0.774 | 0.743 | 0.704 | 0.592 | 0.452 | 0.49 | 1.42 | 1.29 | 1.12 | 1.2 | 1.23
4 | NCI-H650 | 0.351 | 0.461 | 0.579 | 0.42 | 0.374 | 0.526 | 0.416 | 0.46 | 0.348 | 0.497 | 0.847 | 0.941 | 0.892 | 0.416 | 0.396 | 0.993 | 1.06 | 0.94 | 0.752 | 0.829
5 | BEN | 0.557 | 0.723 | 0.592 | 0.441 | 0.558 | 0.625 | 0.543 | 0.585 | 0.574 | 0.487 | 0.776 | 0.476 | 0.531 | 0.38 | 0.322 | 0.954 | 0.829 | 0.802 | 0.597 | 0.621
6 | NCI-H23 | 0.634 | 0.692 | 0.339 | 0.575 | 0.46 | 0.681 | 0.46 | 0.625 | 0.646 | 0.675 | 0.483 | 0.38 | 0.505 | 0.315 | 0.213 | 1.33 | 0.964 | 0.996 | 1.09 | 1.27
7 | NCI-H1975 | 0.713 | 0.686 | 0.643 | 0.66 | 0.542 | 0.795 | 0.636 | 0.662 | 0.931 | 0.801 | 0.86 | 0.713 | 0.851 | 0.286 | 0.243 | 0.968 | 0.922 | 0.991 | 1.01 | 1.01
8 | COR-L 105 | 0.772 | 0.911 | 0.688 | 0.809 | 0.967 | 0.781 | 0.929 | 1.01 | 0.79 | 0.847 | 0.753 | 0.522 | 0.689 | 0.366 | 0.263 | 0.395 | 0.319 | 0.426 | 0.346 | 0.27
9 | LK-2 | 0.327 | 0.315 | 0.225 | – | 0.247 | 0.439 | 0.201 | 0.212 | 0.198 | 0.137 | 0.476 | 0.281 | 0.268 | 0.134 | 0.198 | 0.977 | 0.912 | 1.12 | 1.03 | 0.743
10 | EKVX | 0.407 | 0.747 | 0.734 | 0.678 | 0.636 | 0.785 | 0.625 | 0.758 | 0.661 | 0.702 | 0.945 | 0.683 | 0.778 | 0.314 | 0.142 | 0.205 | 0.173 | 0.177 | 0.192 | 0.196
11 | NCI-H2009 | 0.749 | 0.838 | 0.731 | 0.695 | 0.657 | 0.838 | 0.732 | 0.835 | 0.783 | 0.804 | 1.21 | 1.02 | 1.23 | 0.821 | 0.193 | 0.914 | 1.03 | 1.16 | 0.894 | 0.519
12 | NCI-H838 | 0.778 | 0.748 | 0.693 | 0.759 | 0.769 | 0.839 | 0.661 | 0.756 | 0.713 | 0.763 | 0.832 | 0.628 | 0.573 | 0.243 | 0.221 | 1.17 | 1.14 | 1.13 | 1.03 | 0.959
13 | NCI-H2085 | 0.787 | 0.899 | 0.718 | 0.817 | 0.702 | 0.897 | 0.745 | 0.842 | 0.711 | 0.81 | 0.773 | 0.789 | 0.644 | 0.232 | 0.172 | 0.821 | 0.776 | 0.87 | 0.809 | 0.699
